Here are results for one molecule from patent US5824706A (priority 1995, dated 1998).

The test system of one data set is RSV-B (SM61-48). Put plainly: microbe, parasite or virus in culture. Format: cell-based, RSV SM-61-48 (type-B). Conditions: human respiratory syncytial virus; Table 3; fresh isolate; ^b data from one experiment.
Data set [1] is described as follows: in vitro. Conditions: human, hmv-2 cells.
The test system of another data set is FluV-A. The experiment in a line: microbe, parasite or virus in culture. It is filed as cell-based, influenza virus A/Ishikawa/7/82 (H3N2).
The subject of another data set is FluV-B. Put plainly: MTT antiviral assay, FluV-B in MDCK cells. Conditions: influenza B virus, read-out: EC50 FluV-B (Singapore). It is filed as cell-based, influenza virus B/Singapore/222/79. On the technique in general: Tetrazolium assays rely on reduction of a dye to a coloured formazan, in cell work by metabolically active cells.
Data set [2] is described as follows: in vitro. Conditions: monkey, vero cells, Cytotoxicity IC50 Vero, Table 3.
In a further data set the test system is MLSV. Put plainly: microbe, parasite or virus in culture. It is filed as cell-based, Measles virus (MLSV) Edmonston strain. Conditions: Measles morbillivirus.
The next data set has as its system PFluV-2. Put plainly: MTT antiviral assay, parainfluenzavirus type 2 in HMV-2 cells. Conditions: Table 3, average of 3 to 4 independent experiments, read-out: EC50 PFluV-2 (Greer). Format: cell-based, Greer strain.
Data set [3] is described as follows: in vitro. Conditions: human, hep-2 cells.
For a further data set, the system named is MPSV. The experiment in a line: MTT antiviral assay, mumps virus in HMV-2 cells. Format: cell-based, mumps virus (MPSV) ECXH-3 strain. Conditions: Mumps orthorubulavirus, HMV-2, read-out: EC50 MPSV (EXCH-3).
The subject of another data set is RSV. The experiment in a line: microbe, parasite or virus in culture. It is filed as cell-based, RSV Long strain (type-A). Conditions: human respiratory syncytial virus.
Data set [4] is described as follows: in vitro. Conditions: dog, mdck.
The next data set relates to HMV-2 cells. Conditions: read-out: Cytotoxicity IC50 HMV-2, Table 3.
A further data set has as its system PFluV-3. Put plainly: MTT antiviral assay, parainfluenzavirus type 3 in Vero cells. It is filed as cell-based, C243 strain. Conditions: Table 3, average of 3 to 4 independent experiments, read-out: EC50 PFluV-3 (C243).
A further data set concerns RSV-A (FM-58-8). The experiment in a line: microbe, parasite or virus in culture. Format: cell-based, RSV FM-58-8 (type-A). Conditions: human respiratory syncytial virus; Table 3; fresh isolate; ^b data from one experiment.
The mark [5] stands for this setting: viable cell counting (parentheses).

Like-named read-outs stand apart in the source and are kept apart here.

As usually defined, the EC50 is the concentration needed to bring the measured effect to its halfway point. For the molecule `NC(=O)c1ncn([C@@H]2O[C@H](CO)[C@@H](O)[C@H]2O)n1` [Ribavirin], the EC50 with RSV-B (SM61-48) came to 1.6 µM; in the data set with FluV-A (Ishikawa, read-out: EC50 FluV-A (Ishikawa)), 3.7 µM; in the data set on FluV-A (MDCK, read-out: Antiviral activity, EC50 FluV-A), 8.7 µM; in the data set with FluV-B it was 5.1 µM; with MLSV (HMV-2, read-out: Antiviral activity, EC50 MLSV), 5.2 µM; in the data set on MLSV (HMV-2, read-out: EC50 MLSV (Edmonston)) it was 5.2 µM. Besides, the EC50 in the data set with PFluV-2 was 8.9 µM; with MPSV, 3.4 µM; in the data set with RSV (Table 2, read-out: Antiviral activity, EC50 RSV), 4.7 µM; in the data set with RSV (Table 3, average of 3 to 4 independent experiments, read-out: EC50 RSV-A (Long)) it was 4.7 µM; in the data set on PFluV-3, 17.2 µM; in the data set on RSV-A (FM-58-8), 3.5 µM. The CC50 in the data set “in vitro [1]” was above 100 µM; in the data set “in vitro [2]” (MTT method), 100 µM; in “in vitro [2]” (setting [5]) it was above 200 µM; in the data set “in vitro [3]” (Cytotoxicity IC50 HEp-2, Table 3, MTT method), 52.7 µM; in “in vitro [3]” (Cytotoxicity IC50 HEp-2, Table 3, viable cell counting (parentheses)) it was above 200 µM; in “in vitro [3]” (Cytotoxicity, IC50 HEp-2, Table 2), above 50 µM. For the same molecule, the CC50 in the data set “in vitro [4]” (Cytotoxicity IC50 MDCK, Table 3, MTT method) was above 200 µM; in “in vitro [4]” (Cytotoxicity IC50 MDCK, Table 3, viable cell counting (parentheses)), above 200 µM; in the data set “in vitro [4]” (Cytotoxicity, IC50 MDCK, Table 2), above 100 µM; with HMV-2 cells (MTT method) it was above 100 µM; in the data set with HMV-2 cells (setting [5]), above 100 µM.
